Test system: batrachotoxin (BTX) binding site of the sodium channel
Assay: Affinity for the batrachotoxin (BTX) binding site of the sodium channel
Details: rat cerebrocortex synaptosomes, [3H]-Batrachotoxinin A20α benzoate 10 nM

Compared with `COc1ccc(-c2c(C)cn(Cc3ccc(F)cc3)c2C(=O)NCCc2cccs2)cc1` [Example 35, 1-(4-fluorobenzyl)-3-(4-methoxyphenyl)-4-methyl-1H-pyrrole-2-carboxylic acid (2-thiophen-2-ylethyl)-amide], `COc1ccc(-c2c(C)cn(Cc3ccc(F)cc3)c2C(=O)NCCc2cccc(C(F)(F)F)c2)cc1` [Example 54, 1-(4-fluorobenzyl)-3-(4-methoxyphenyl)-4-methyl-1H-pyrrole-2-carboxylic acid [2-(3-trifluoromethylphenyl)-ethyl]-amide] is lower in “BTX (Na+ channel) (% inhibition at 10 μM)” value: 48% for the first, 42% for the second.

Going from `Cc1cn(Cc2ccc(C(F)(F)F)cc2)c(C(=O)NCCN2CCCC2)c1-c1ccco1` [Example 38, 3-furan-2-yl-4-methyl-1-(4-trifluoromethylbenzyl)-1H-pyrrole-2-carboxylic acid (2-pyrrolidin-1-ylethyl)-amide] to `Cc1cn(Cc2ccc(F)cc2)c(C(=O)NCCN2CCOCC2)c1-c1ccco1` [Example 50, 1-(4-fluorobenzyl)-3-furan-2-yl-4-methyl-1H-pyrrole-2-carboxylic acid (2-morpholin-4-ylethyl)-amide], the “BTX (Na+ channel) (% inhibition at 10 μM)” value falls from 94% to 77%.

Going from `COc1ccc(Cn2cc(C)c(-c3ccc(C)cc3)c2C(=O)N(C)CC(=O)OCc2ccccc2)cc1` [Example 39, {[1-(4-methoxybenzyl)-4-methyl-3-p-tolyl-1H-pyrrole-2-carbonyl]-methylamino}-acetic acid benzyl ester] to `COc1ccc(OCCNC(=O)c2c(-c3ccccc3)c(C)cn2Cc2ccccc2)cc1` [Example 62, 1-benzyl-4-methyl-3-phenyl-1H-pyrrole-2-carboxylic acid [2-(4-methoxyphenoxy)-ethyl]-amide], the “BTX (Na+ channel) (% inhibition at 10 μM)” value falls from 74% to 50%.

Compared with `COc1ccc(Cn2cc(C)c(-c3ccco3)c2C(=O)NCCC2CCCN2C)cc1` (stereo not shown) [Example 40, 3-furan-2-yl-1-(4-methoxybenzyl)-4-methyl-1H-pyrrole-2-carboxylic acid [2-(1-methylpyrrolidin-2-yl)-ethyl]-amide], `Cc1cn(Cc2ccc(F)cc2)c(C(=O)NCCCN(C)C)c1-c1ccco1` [Example 63, 1-(4-fluorobenzyl)-3-furan-2-yl-4-methyl-1H-pyrrole-2-carboxylic acid (3-dimethylamino-propyl)-amide] is lower in “BTX (Na+ channel) (% inhibition at 10 μM)” value: 81% for the first, 75% for the second.

Compared with `CCOc1ccc(Br)cc1CN1CCN(C(=O)c2c(-c3ccccc3)c(C)cn2C)CC1` [Example 41, [4-(5-bromo-2-ethoxybenzyl)-piperazin-1-yl]-(1,4-dimethyl-3-phenyl-1H-pyrrol-2-yl)-methanone], `COc1ccc(CN2CCN(C(=O)c3c(-c4ccccc4)c(C)cn3C)CC2)cc1F` [Example 59, (1,4-dimethyl-3-phenyl-1H-pyrrol-2-yl)-[4-(3-fluoro-4-methoxybenzyl)-piperazin-1-yl]-methanone] is lower in “BTX (Na+ channel) (% inhibition at 10 μM)” value: 77% for the first, 75% for the second.

First: COc1ccc(CN2CCN(C(=O)c3c(-c4ccco4)c(C)cn3Cc3ccccc3)CC2)cc1F [Example 42, (1-benzyl-3-furan-2-yl-4-methyl-1H-pyrrol-2-yl)-[4-(3-fluoro-4-methoxybenzyl)-piperazin-1-yl]-methanone]
Second: CCOc1ccc(Br)cc1CN1CCN(C(=O)c2c(-c3ccco3)c(C)cn2Cc2ccccc2)CC1 [Example 45, (1-benzyl-3-furan-2-yl-4-methyl-1H-pyrrol-2-yl)-[4-(5-bromo-2-ethoxybenzyl)-piperazin-1-yl]-methanone]
The “BTX (Na+ channel) (% inhibition at 10 μM)” value of the first is lower: 88% for the first, 89% for the second.

Going from `CCn1cc(C)c(-c2ccc(Cl)cc2)c1C(=O)NCCC(=O)OC(C)(C)C` [Example 43, 3-{[3-(4-chlorophenyl)-1-ethyl-4-methyl-1H-pyrrole-2-carbonyl]-amino}-propionic acid tert.-butyl ester] to `CCN(CC)CCCNC(=O)c1c(-c2ccc(Cl)cc2)c(C)cn1CC(C)C` [Example 65, 3-(4-chlorophenyl)-1-isobutyl-4-methyl-1H-pyrrole-2-carboxylic acid (3-diethylamino-propyl)-amide], the “BTX (Na+ channel) (% inhibition at 10 μM)” value rises from 31% to 88%.

Going from `COc1cccc(CNC(=O)c2c(-c3ccccc3)c(C)cn2Cc2ccccc2)c1` [Example 44, 1-benzyl-4-methyl-3-phenyl-1H-pyrrole-2-carboxylic acid 3-methoxybenzylamide] to `Cc1cn(Cc2ccccc2)c(C(=O)NCCc2ccc(F)cc2)c1-c1ccc(Cl)cc1` [Example 51, 1-benzyl-3-(4-chlorophenyl)-4-methyl-1H-pyrrole-2-carboxylic acid [2-(4-fluorophenyl)-ethyl]-amide], the “BTX (Na+ channel) (% inhibition at 10 μM)” value falls from 47% to 43%.

Compared with `Cc1ccccc1N1CCN(C(=O)c2c(-c3ccc(Cl)cc3)c(C)cn2C)CC1` [Example 46, [3-(4-chlorophenyl)-1,4-dimethyl-1H-pyrrol-2-yl]-(4-o-tolylpiperazin-1-yl)-methanone], `Cc1cn(C)c(C(=O)N2CCN(c3ccncc3)CC2)c1-c1ccc(Cl)cc1` [Example 57, [3-(4-chlorophenyl)-1,4-dimethyl-1H-pyrrol-2-yl]-(4-pyridin-4-ylpiperazin-1-yl)-methanone] is higher in “BTX (Na+ channel) (% inhibition at 10 μM)” value: 55% for the first, 76% for the second.

Compared with `CCOc1ccc(CCNC(=O)c2c(-c3ccc(OC)cc3)c(C)cn2Cc2ccc(F)cc2)cc1` [Example 47, 1-(4-fluorobenzyl)-3-(4-methoxyphenyl)-4-methyl-1H-pyrrole-2-carboxylic acid [2-(4-ethoxyphenyl)-ethyl]-amide], `COc1ccc(CNC(=O)c2c(-c3ccc(Cl)cc3)c(C)cn2Cc2ccccc2F)c(OC)c1` [Example 73, 3-(4-chlorophenyl)-1-(2-fluorobenzyl)-4-methyl-1H-pyrrole-2-carboxylic acid 2,4-dimethoxybenzylamide] is lower in “BTX (Na+ channel) (% inhibition at 10 μM)” value: 55% for the first, 49% for the second.

First: Cc1ccc(-c2c(C)cn(Cc3c(Cl)cccc3Cl)c2C(=O)N2CCC(O)CC2)cc1 [Example 48, [1-(2,6-dichlorobenzyl)-4-methyl-3-p-tolyl-1H-pyrrol-2-yl]-(4-hydroxypiperidin-1-yl)-methanone]
Second: CCN(CC)CCN1CCN(C(=O)c2c(-c3ccc(C)cc3)c(C)cn2Cc2ccc(C)cc2)CC1 [Example 69, [4-(2-diethylamino-ethyl)-piperazin-1-yl]-[4-methyl-1-(4-methylbenzyl)-3-p-tolyl-1H-pyrrol-2-yl]-methanone]
The “BTX (Na+ channel) (% inhibition at 10 μM)” value of the first is lower: 36% for the first, 91% for the second.

Going from `COc1cc(OC)c(CN2CCN(C(=O)c3c(-c4ccc(C)cc4)c(C)cn3C)CC2)c(OC)c1` [Example 49, (1,4-dimethyl-3-p-tolyl-1H-pyrrol-2-yl)-[4-(2,4,6-trimethoxybenzyl)-piperazin-1-yl]-methanone] to `CCCCn1cc(C)c(-c2ccc(C)cc2)c1C(=O)N1CCN(Cc2cc(OC)ccc2OC)CC1` [Example 68, (1-butyl-4-methyl-3-p-tolyl-1H-pyrrol-2-yl)-[4-(2,5-dimethoxybenzyl)-piperazin-1-yl]-methanone], the “BTX (Na+ channel) (% inhibition at 10 μM)” value falls from 89% to 84%.

Going from `COc1ccc(-c2c(C)cn(C)c2C(=O)N2CCN(c3cc(C)ccc3C)CC2)cc1` [Example 52, [4-(2,5-dimethylphenyl)-piperazin-1-yl]-[3-(4-methoxyphenyl)-1,4-dimethyl-1H-pyrrol-2-yl]-methanone] to `COc1ccc(-c2c(C)cn(C)c2C(=O)N2CCN(c3cccc(Cl)c3)CC2)cc1` [Example 70, [4-(3-chlorophenyl)-piperazin-1-yl]-[3-(4-methoxyphenyl)-1,4-dimethyl-1H-pyrrol-2-yl]-methanone], the “BTX (Na+ channel) (% inhibition at 10 μM)” value falls from 76% to 59%.

First: COc1ccc(-c2c(C)cn(C)c2C(=O)NCCCn2ccnc2)cc1 [Example 53, 3-(4-methoxyphenyl)-1,4-dimethyl-1H-pyrrole-2-carboxylic acid (3-imidazol-1-ylpropyl)-amide]
Second: Cc1cn(Cc2ccccc2F)c(C(=O)NCCCn2ccnc2)c1-c1ccc(Cl)cc1 [Example 58, 3-(4-chlorophenyl)-1-(2-fluorobenzyl)-4-methyl-1H-pyrrole-2-carboxylic acid (3-imidazol-1-ylpropyl)-amide]
The “BTX (Na+ channel) (% inhibition at 10 μM)” value of the first is lower: 44% for the first, 93% for the second.

First: Cc1cnc(C(=O)N2CCN(C(=O)c3c(-c4ccc(Cl)cc4)c(C)cn3Cc3ccccc3F)CC2)cn1 [Example 55, [3-(4-chlorophenyl)-1-(2-fluorobenzyl)-4-methyl-1H-pyrrol-2-yl]-[4-(5-methylpyrazin-2-carbonyl)-piperazin-1-yl]-methanone]
Second: Cc1cn(Cc2ccccc2Br)c(C(=O)N2CCN(C(C)C)CC2)c1-c1ccc(Cl)cc1 [Example 71, [1-(2-bromobenzyl)-3-(4-chlorophenyl)-4-methyl-1H-pyrrol-2-yl]-(4-isopropylpiperazin-1-yl)-methanone]
The “BTX (Na+ channel) (% inhibition at 10 μM)” value of the first is lower: 44% for the first, 83% for the second.

Going from `Cc1cn(C)c(C(=O)N2CCN(C3CCCCCC3)CC2)c1-c1ccco1` [Example 61, (4-cycloheptylpiperazin-1-yl)-(3-furan-2-yl-1,4-dimethyl-1H-pyrrol-2-yl)-methanone] to `COc1ccc(F)c(CN2CCN(C(=O)c3c(-c4ccc(Cl)cc4)c(C)cn3C)CC2)c1` [Example 66, [3-(4-chlorophenyl)-1,4-dimethyl-1H-pyrrol-2-yl]-[4-(2-fluoro-5-methoxybenzyl)-piperazin-1-yl]-methanone], the “BTX (Na+ channel) (% inhibition at 10 μM)” value rises from 64% to 73%.

First: COc1ccc(-c2c(C)cn(Cc3ccc(F)cc3)c2C(=O)N2CCCC2CN2CCCC2)cc1 (stereo not shown) [Example 64, [1-(4-fluorobenzyl)-3-(4-methoxyphenyl)-4-methyl-1H-pyrrol-2-yl]-(2-pyrrolidin-1-ylmethylpyrrolidin-1-yl)-methanone]
Second: COc1ccc(-c2c(C)cn(Cc3ccc(F)cc3)c2C(=O)N2CCN(CCN(C)C)CC2)cc1 [Example 72, [4-(2-dimethylamino-ethyl)-piperazin-1-yl]-[1-(4-fluorobenzyl)-3-(4-methoxyphenyl)-4-methyl-1H-pyrrol-2-yl]-methanone]
The “BTX (Na+ channel) (% inhibition at 10 μM)” value of the first is higher: 96% for the first, 81% for the second.

Source: patent US7968591B2, “1,3-disubstituted 4-methyl-1H-pyrrole-2-carboxamides and their use in medicaments” (Gruenenthal GmbH, priority 2006, dated 2011)
